Experimental findings from US20040224313A1, “Polymorphisms in the human cyp2b6 gene and their use in diagnostic and therapeutic applications” (priority 2000, published 2004) are described below.

Changes are numbered by the printed parent chain.

Data set [1] deals with T1, CYP2B6 (Homo sapiens, UniProt P20813).
T1 sequence (P20813 1-491): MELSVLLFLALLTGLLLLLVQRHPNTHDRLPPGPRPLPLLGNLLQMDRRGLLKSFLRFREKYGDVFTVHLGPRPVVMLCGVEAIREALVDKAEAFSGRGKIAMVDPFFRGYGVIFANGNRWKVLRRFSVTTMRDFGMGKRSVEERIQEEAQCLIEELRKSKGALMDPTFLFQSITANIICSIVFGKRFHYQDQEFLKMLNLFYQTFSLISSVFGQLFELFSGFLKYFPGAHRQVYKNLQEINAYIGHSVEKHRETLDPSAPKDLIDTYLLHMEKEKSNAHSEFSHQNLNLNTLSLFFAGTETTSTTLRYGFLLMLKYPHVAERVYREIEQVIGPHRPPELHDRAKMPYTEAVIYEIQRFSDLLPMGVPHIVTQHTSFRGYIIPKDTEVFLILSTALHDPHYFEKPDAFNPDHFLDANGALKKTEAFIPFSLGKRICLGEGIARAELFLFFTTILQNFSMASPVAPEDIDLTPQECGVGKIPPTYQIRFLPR
Conditions: human liver microsomes, homozygous wild-type (Wt) group. The method, then:
(§1) FIG. 4: Analysis of CYP2B6 protein expression (A) and enzymatic function (B). CYP2B6 protein was determined by immunoblotting and the S-mephenytoin N-demethylation to Nirvanol was measured in 92 liver microsome samples. The 5 nonsynonymous CYP2B6 mutations were determined in DNA from the same 92 individuals. Wt indicates the group of 30 individuals with homozygous wild-type genotype; 487 R/C and 487 C/C show the results for individuals heterozygous or homozygous for the exon 9 mutation, respectively. All other mutant genotypes are collectively shown. The average expression and activity of each group is shown as horizontal line. Statistical significance was evaluated by the t-test in comparison to the Wt group: * P<0.05; ** P<0.01.
(§2) The functional significance of the mutations in the CYP2B6 gene (Table 2) was investigated by analyzing expression and enzymatic activity of CYP2B6 in a large human liver bank. A specific monoclonal antibody, MAB-2B6 (Gentest Corp., Woburn, Mass., USA) was used to immunoquantitate microsomal CYP2B6. S-mephenytoin N-demethylation to Nirvanol was measured as a rather CYP2B6-specific pathway. The five nonsynonymous mutations were determined in all samples.
In general terms: Liver microsomes are vesicles of endoplasmic reticulum, rich in cytochrome P450 enzymes.

Data set [2] addresses T2, CYP2B6 (Homo sapiens, UniProt P20813, R487C).
T2 sequence (P20813 1-491 R487C): T1 sequence (P20813 1-491) with R487C
To be noted: human liver microsomes, homozygous carriers of R487C (C1459T). The method, then: as §1, §2

Data set [3] deals with CYP2B6. To be noted: human liver microsomes, heterozygous carriers of R487C (C1459T). The method, then:
as §1, §2

As for `CC[C@@]1(c2ccccc2)NC(=O)N(C)C1=O` [S-mephenytoin], the “mean enzyme activity, S-mephenytoin N-demethylation” value is listed as 49.2±49.4 pmoles of nirvanol formed/min*mg in data set [1], 22.2±8.4 pmoles of nirvanol formed/min*mg in data set [2] and 25.9±15.2 pmoles of nirvanol formed/min*mg in data set [3].
